Data set [1] addresses monomeric Griffithsin (GRFT). Also on record: method as in PMID 17340634. Particulars: monovalent sugar; cited from earlier work.
A short description of data set [2]: Dynamic light scattering (DLS) hydrodynamic diameter in solution. It counts as physicochemical. The settings on record: H2O, 1 mM, 25 °C. The method, then:
S3. Dynamic Light Scattering (DLS)
All measurements were conducted using a 384-well plate with individual sample volumes of 30
µL. Solutions of man-2, man-3, and man-6 were freshly prepared in H2O (1 mM). For the glycoassembly analyses, two solution conditions were used: samples prepared in H2O (5 μM), and samples prepared in mixed DMSO/H2O solutions (85% v/v, 50 μM). The concentration of each glycoassembly solution was determined by absorption spectroscopy according to ε values (M-1cm-1) reported in Section S2.2. All sample solutions were filtered through a 0.22 μm PTFE syringe filter before being added to a well. The sample plate was then centrifuged using a Fisherbrand Mini Plate Spinner Centrifuge at 2500 rpm for 20 sec, and measurements were immediately collected at 25 °C. Before data collection, images were taken of each well to confirm the absence of bubbles or visible dust particles that affect the DLS measurements. The hydrodynamic diameter (Dh) values represent the mean ± standard deviation (σ) of the hydrodynamic size averaged for three (1 sec) scans and all data were analyzed using DYNAMICS […]
S3.1.1. Measurement in H2O (1 mM)
Figure S53. DLS measurements of man -2 (H O, 1 mM).
S3.2.1. Measurement in H2O (1 mM)
Figure S54. DLS measurements of man-3 (H2O, 1 mM). […]

Broadly, the Kd is a measure of binding affinity in units of concentration.

In the case of `OC[C@H]1O[C@H](O)[C@@H](O)[C@@H](O)[C@@H]1O` [α-D-mannose], in data set [1], the dissociation constant Kd is about 100 µM.
As for `O=Cc1ccc(OCc2cc(OCc3cc(OCc4cn(CCOCCO[C@H]5O[C@H](CO)[C@@H](O)[C@H](O)[C@@H]5O)nn4)c(OCc4cn(CCOCCO[C@H]5O[C@H](CO)[C@@H](O)[C@H](O)[C@@H]5O)nn4)c(OCc4cn(CCOCCO[C@H]5O[C@H](CO)[C@@H](O)[C@H](O)[C@@H]5O)nn4)c3)cc(OCc3cc(OCc4cn(CCOCCO[C@H]5O[C@H](CO)[C@@H](O)[C@H](O)[C@@H]5O)nn4)c(OCc4cn(CCOCCO[C@H]5O[C@H](CO)[C@@H](O)[C@H](O)[C@@H]5O)nn4)c(OCc4cn(CCOCCO[C@H]5O[C@H](CO)[C@@H](O)[C@H](O)[C@@H]5O)nn4)c3)c2)cn1` [man-6], the “Hydrodynamic diameter (Dh)” value in data set [2] was determined as 2.4 ± 0.2 nm.
With `O=Cc1ccc(OCc2cc(OCc3cn(CCOCCO[C@H]4O[C@H](CO)[C@@H](O)[C@H](O)[C@@H]4O)nn3)c(OCc3cn(CCOCCO[C@H]4O[C@H](CO)[C@@H](O)[C@H](O)[C@@H]4O)nn3)c(OCc3cn(CCOCCO[C@H]4O[C@H](CO)[C@@H](O)[C@H](O)[C@@H]4O)nn3)c2)cn1` [man-3], in data set [2], the “Hydrodynamic diameter (Dh)” value was found to be 1.8 ± 0.1 nm.
Consider `O=Cc1ccc(OCc2cc(OCc3cn(CCOCCO[C@H]4O[C@H](CO)[C@@H](O)[C@H](O)[C@@H]4O)nn3)cc(OCc3cn(CCOCCO[C@H]4O[C@H](CO)[C@@H](O)[C@H](O)[C@@H]4O)nn3)c2)cn1` [man-2], for which the “Hydrodynamic diameter (Dh)” value in data set [2] turned out to be 1.6 ± 0.6 nm.

Source of the values: publication PMC12236194, “Precision dendritic-supramolecular glycan assemblies for probing multivalent lectin interactions” (Chemical Science, 2025).
